COC(=O)c1nc[nH]n1
Details	solubility (mole fraction)
in 2-pentanone, 278.15 K	0.000862
in 2-pentanone, 283.35 K	0.000994
in 2-pentanone, 288.05 K	0.0012
in 2-pentanone, 292.55 K	0.00136
in 2-pentanone, 297.95 K	0.00165
in 2-pentanone, 302.65 K	0.00192
in 2-pentanone, 307.35 K	0.00222
in 2-pentanone, 313.05 K	0.00253
in 2-pentanone, 317.35 K	0.00285
in 3-pentanone, 278.25 K	0.000784
in 3-pentanone, 283.35 K	0.000902
in 3-pentanone, 288.05 K	0.00107
in 3-pentanone, 292.55 K	0.00127
in 3-pentanone, 298.35 K	0.00143
in 3-pentanone, 303.05 K	0.00172
in 3-pentanone, 307.35 K	0.00191
in 3-pentanone, 312.85 K	0.00224
in 3-pentanone, 317.15 K	0.00243
in MIBK, 278.25 K	0.000526
in MIBK, 283.35 K	0.000657
in MIBK, 288.05 K	0.000734
in MIBK, 292.55 K	0.000852
in MIBK, 298.35 K	0.00111
in MIBK, 303.05 K	0.00127
in MIBK, 307.35 K	0.00148
in MIBK, 312.55 K	0.00172
in MIBK, 317.05 K	0.00197
in THF, 278.15 K	0.00105
in THF, 283.05 K	0.00137
in THF, 289.05 K	0.00196
in THF, 293.25 K	0.00244
in THF, 298.35 K	0.00323
in THF, 303.05 K	0.00419
in THF, 307.35 K	0.00517
in THF, 313.85 K	0.00714
in THF, 317.95 K	0.00875
in acetone, 278.15 K	0.00153
in acetone, 283.35 K	0.00181
in acetone, 288.05 K	0.00203
in acetone, 292.55 K	0.00232
in acetone, 297.95 K	0.00286
in acetone, 302.65 K	0.0033
in acetone, 307.35 K	0.00382
in acetone, 313.25 K	0.00458
in acetone, 317.55 K	0.00508
in acetonitrile, 278.65 K	0.000843
in acetonitrile, 283.45 K	0.000993
in acetonitrile, 288.25 K	0.0012
in acetonitrile, 292.85 K	0.00142
in acetonitrile, 297.05 K	0.00168
in acetonitrile, 301.85 K	0.00206
in acetonitrile, 307.35 K	0.00245
in acetonitrile, 313.25 K	0.00305
in acetonitrile, 318.95 K	0.00384
in cyclohexanone, 278.05 K	0.00557
in cyclohexanone, 282.95 K	0.00583
in cyclohexanone, 289.05 K	0.00622
in cyclohexanone, 293.25 K	0.00657
in cyclohexanone, 298.35 K	0.00687
in cyclohexanone, 303.05 K	0.0075
in cyclohexanone, 307.35 K	0.00814
in cyclohexanone, 313.75 K	0.00888
in cyclohexanone, 317.85 K	0.00962
in cyclopentanone, 277.95 K	0.00156
in cyclopentanone, 282.85 K	0.0018
in cyclopentanone, 288.95 K	0.00219
in cyclopentanone, 293.25 K	0.00251
in cyclopentanone, 298.25 K	0.00303
in cyclopentanone, 303.05 K	0.00356
in cyclopentanone, 307.25 K	0.00417
in cyclopentanone, 313.65 K	0.0053
in cyclopentanone, 317.65 K	0.00632
in ethanol, 278.45 K	0.00142
in ethanol, 283.15 K	0.0016
in ethanol, 288.05 K	0.00204
in ethanol, 292.65 K	0.00254
in ethanol, 297.25 K	0.00305
in ethanol, 301.65 K	0.00378
in ethanol, 306.95 K	0.00464
in ethanol, 312.65 K	0.00602
in ethanol, 318.05 K	0.00759
in isobutanol, 278.65 K	0.00103
in isobutanol, 283.35 K	0.00116
in isobutanol, 288.25 K	0.00141
in isobutanol, 292.85 K	0.00182
in isobutanol, 297.05 K	0.00222
in isobutanol, 301.85 K	0.00273
in isobutanol, 307.15 K	0.00337
in isobutanol, 313.15 K	0.00439
in isobutanol, 318.65 K	0.00581
in isopropanol, 278.55 K	0.000966
in isopropanol, 283.25 K	0.00119
in isopropanol, 288.15 K	0.00146
in isopropanol, 292.75 K	0.00188
in isopropanol, 297.15 K	0.00235
in isopropanol, 301.75 K	0.00297
in isopropanol, 307.05 K	0.00389
in isopropanol, 312.85 K	0.00511
in isopropanol, 318.35 K	0.00693
in methanol, 278.45 K	0.00294
in methanol, 283.15 K	0.0033
in methanol, 288.05 K	0.00385
in methanol, 292.65 K	0.00467
in methanol, 297.25 K	0.00537
in methanol, 301.65 K	0.00645
in methanol, 306.95 K	0.00768
in methanol, 312.55 K	0.00952
in methanol, 317.85 K	0.0115
in n-butanol, 278.55 K	0.00199
in n-butanol, 283.35 K	0.00217
in n-butanol, 288.15 K	0.00246
in n-butanol, 292.75 K	0.00279
in n-butanol, 297.15 K	0.00326
in n-butanol, 301.75 K	0.00378
in n-butanol, 307.15 K	0.00476
in n-butanol, 312.95 K	0.00613
in n-butanol, 318.45 K	0.00818
in n-propanol, 278.55 K	0.00137
in n-propanol, 283.25 K	0.00153
in n-propanol, 288.15 K	0.00183
in n-propanol, 292.75 K	0.00227
in n-propanol, 297.15 K	0.00264
in n-propanol, 301.75 K	0.00325
in n-propanol, 307.05 K	0.00398
in n-propanol, 312.75 K	0.00532
in n-propanol, 318.15 K	0.0069

From BigSolDB 2.1
